Read-outs that look alike come from different tables or passages of the source.
Tests used:
[1] = target: T1, human PEPT2 (Homo sapiens, UniProt Q16348); assay: SLC transporter substrate assay, CHO-K1-PEPT2 vs control CHO-K1 cells; settings: 20 min; for Max. transporter-specific fold accumulation, without inhibitor / Max. transporter-specific fold accumulation, with inhibitor: 0.3 µM; for Max. transporter-specific fold accumulation, with inhibitor: Cefadroxil
T1 sequence (Q16348 1-729): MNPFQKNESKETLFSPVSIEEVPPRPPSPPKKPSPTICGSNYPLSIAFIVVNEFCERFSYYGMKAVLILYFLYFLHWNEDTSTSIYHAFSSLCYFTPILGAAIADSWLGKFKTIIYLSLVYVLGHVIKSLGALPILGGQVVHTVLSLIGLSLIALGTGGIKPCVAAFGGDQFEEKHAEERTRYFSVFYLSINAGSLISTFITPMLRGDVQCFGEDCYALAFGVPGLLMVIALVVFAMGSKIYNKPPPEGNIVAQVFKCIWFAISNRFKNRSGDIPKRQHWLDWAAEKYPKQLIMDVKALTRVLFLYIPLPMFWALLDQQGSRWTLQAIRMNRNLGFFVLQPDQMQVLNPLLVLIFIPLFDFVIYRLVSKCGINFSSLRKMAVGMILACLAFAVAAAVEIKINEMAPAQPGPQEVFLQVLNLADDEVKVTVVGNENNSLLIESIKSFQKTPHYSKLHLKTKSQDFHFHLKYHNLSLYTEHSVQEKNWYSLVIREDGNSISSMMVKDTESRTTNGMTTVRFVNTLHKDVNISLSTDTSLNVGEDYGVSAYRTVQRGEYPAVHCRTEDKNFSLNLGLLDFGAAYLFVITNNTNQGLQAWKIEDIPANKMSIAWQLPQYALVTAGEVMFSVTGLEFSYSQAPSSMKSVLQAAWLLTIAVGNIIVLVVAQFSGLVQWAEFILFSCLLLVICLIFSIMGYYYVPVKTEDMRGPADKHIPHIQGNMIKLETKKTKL
Method: The described cells were plated onto standard 24-well tissue culture plates at densities of 5 × 10^5 cells/well. […] Before starting the experiment, the cells were prepared by removing the medium and washing the cells twice with 300 µL of assay buffer. […] The cells were lysed by adding 300 µL of 0.1N NaOH, they were incubated for 10 min at 37 °C and 100 µL samples were taken from all the wells.
The amount of protein in each well was quantified using the BCA kit for protein determination (Sigma-Aldrich, St Louis, MO, USA). Positive controls were performed using a separate 96-well plate format according to Table S8 in SI4.
SI4. Results of transporter substrate assays (SLC)
Table S8: Parameters of positive controls, control cell lines and plating for SLC transporters assays.
KH: Krebs-Henseleit buffer, HBSS: Hank's balanced salt solution, MES: 2 -(N-morpholino) ethanesulfonic acid, cGMP:
Guanosine cyclic phosphate, E3S: Estrone -3-sulfate, Gly-Sar: Glycylsarcosine, MPP+: 1-methyl-4-phenylpyridinium.
Calculation of fold accumulation values for SLC transporter substrate assays The fold accumulation value was defined as the ratio of uptake of the test substance (TS) or probe substrate into transfected and control cells. If the fold accumulation is > 2 and can be inhibited by a known inhibitor of the transporter, the test substance can be considered as a substrate of the respective transporter.
Fold accumulation = UPTTRP
• UPTTRP: accumulated amount of test substance (TS) or probe substrate in transfected cells normalized by protein content […]
• UPTCTRL: accumulated amount of test substance (TS) or probe substrate in control cells normalized by protein content […]
Positive control conducted at pH 5.0.
Gly-Sar: Glycylsarcosine.

[2] = target: MDR1 (Homo sapiens, UniProt P08183); settings: for Relative inhibition / ATP dependent transport / Relative ATP dependent transport: NMQ probe; for ATP dependent transport / Relative ATP dependent transport: mean (n=3) ± SD
Sequence of MDR1 (P08183 whole entry): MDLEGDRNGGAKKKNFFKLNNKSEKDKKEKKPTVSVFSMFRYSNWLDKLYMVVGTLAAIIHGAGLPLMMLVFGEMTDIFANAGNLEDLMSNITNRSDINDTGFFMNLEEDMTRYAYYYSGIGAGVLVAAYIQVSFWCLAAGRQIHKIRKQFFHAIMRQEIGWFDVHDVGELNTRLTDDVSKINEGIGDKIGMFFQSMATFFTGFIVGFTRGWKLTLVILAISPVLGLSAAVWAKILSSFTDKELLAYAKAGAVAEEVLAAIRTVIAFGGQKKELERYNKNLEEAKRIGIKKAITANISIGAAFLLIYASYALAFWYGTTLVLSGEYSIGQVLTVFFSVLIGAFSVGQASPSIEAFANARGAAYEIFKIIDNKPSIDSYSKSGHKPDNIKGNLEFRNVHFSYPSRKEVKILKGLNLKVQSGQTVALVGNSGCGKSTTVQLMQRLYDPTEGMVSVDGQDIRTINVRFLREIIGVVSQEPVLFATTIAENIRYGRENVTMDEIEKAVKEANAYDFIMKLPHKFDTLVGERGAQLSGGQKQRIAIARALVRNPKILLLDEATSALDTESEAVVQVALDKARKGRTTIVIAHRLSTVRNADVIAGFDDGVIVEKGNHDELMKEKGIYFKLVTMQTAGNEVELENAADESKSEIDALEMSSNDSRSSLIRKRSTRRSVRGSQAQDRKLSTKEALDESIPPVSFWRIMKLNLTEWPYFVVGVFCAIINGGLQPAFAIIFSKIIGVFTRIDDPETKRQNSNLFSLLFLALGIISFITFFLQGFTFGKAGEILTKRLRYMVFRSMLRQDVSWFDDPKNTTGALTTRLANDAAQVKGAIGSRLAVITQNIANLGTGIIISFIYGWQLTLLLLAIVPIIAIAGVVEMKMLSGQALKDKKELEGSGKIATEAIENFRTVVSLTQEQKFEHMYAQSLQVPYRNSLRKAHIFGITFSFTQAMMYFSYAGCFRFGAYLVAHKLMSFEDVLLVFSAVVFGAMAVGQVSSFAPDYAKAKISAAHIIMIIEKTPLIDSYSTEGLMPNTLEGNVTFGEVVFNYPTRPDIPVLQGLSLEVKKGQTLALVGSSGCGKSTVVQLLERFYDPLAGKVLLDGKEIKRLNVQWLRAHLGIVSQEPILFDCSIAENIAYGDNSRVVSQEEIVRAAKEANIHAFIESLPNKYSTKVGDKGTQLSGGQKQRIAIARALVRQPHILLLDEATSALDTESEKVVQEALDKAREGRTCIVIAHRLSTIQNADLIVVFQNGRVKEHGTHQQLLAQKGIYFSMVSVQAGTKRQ
Method: The incubations were carried out in the presence of 4 mM ATP or AMP to distinguish between transporter-mediated uptake and passive diffusion into the vesicles. […] Afterwards, the reaction mixtures were pre-incubated for 15 min at 37 °C for MRP1 or at 32 °C for BCRP, MDR1 and MRP4, respectively. The transporter assay was initiated through the addition of 25 μL of pre-warmed 12 mM MgATP (or 12 mM AMP in assay buffer as a background control). The reactions were quenched through the addition of 200 μL of ice-cold washing buffer and immediate filtration via glass fiber filters mounted onto a 96-well plate (filter plate). The filters were washed (5 × 200 μL of ice-cold washing buffer) and dried, and the amount of probe substrate inside the filtered vesicles was determined using LSC. The experiments were conducted in triplicate.
Calculation of ATP-dependent transport and inhibition for vesicular transport inhibition
For all wells the amount of the translocated probe substrate was determined in counts per minute (cpm).
ATP-dependent transport (pmol/mg protein/min) is calculated for each concentration using the following
𝐴𝑐𝑐𝐴𝑇𝑃 ∙ 𝑉 ∙ 𝐶𝐶 𝐴𝑐𝑐𝐴𝑀𝑃 ∙𝑉 ∙𝐶𝐶
𝐴𝑇𝑃 − 𝑑𝑒𝑝𝑒𝑛𝑑𝑒𝑛𝑡 𝑎𝑐𝑐𝑢𝑚𝑢𝑙𝑎𝑡𝑖𝑜𝑛 = ( 𝑇𝐶𝑃𝑀 𝑠𝑢𝑏) − ( 𝑇𝐶𝑃𝑀 𝑠𝑢𝑏)
• AccATP: probe substrate accumulation with ATP (cpm)
• AccAMP: probe substrate accumulation with AMP (cpm)
• Tcpm: cpm in dosing solution V: volume per well (µL)
• CCsub: probe substrate concentration (µM)
• Prot: total protein per well (mg)
• t: incubation time (min)
Relative ATP-dependent transport (%) values were calculated using the following equation:
𝑅𝑒𝑙𝑎𝑡𝑖𝑣𝑒 𝐴𝑇𝑃 − 𝑑𝑒𝑝𝑒𝑛𝑑𝑒𝑛𝑡 𝑡𝑟𝑎𝑛𝑠𝑝𝑜𝑟𝑡 (%) = 𝐴 − 𝐵 ∙ 100
• A: amount of translocated substrate in the presence of test substance (TS) and ATP
• B: amount of translocated substrate in the presence of test substance (TS) and AMP
• C: amount of translocated substrate in the presence of solvent and ATP
• D: amount of translocated substrate in the presence of solvent and AMP
Relative inhibition (%) is calculated by setting probe substrate transport in the absence of test substance as
𝑅𝑒𝑙𝑎𝑡𝑖𝑣𝑒 𝑖𝑛ℎ𝑖𝑏𝑖𝑡𝑖𝑜𝑛 (%) = 𝐴𝑐𝑐𝑆𝑝𝑒𝑐𝑖𝑓𝑖𝑐,𝑥 ∙100
• Accspecific,x: transporter specific accumulation for a given sample (pmol/mg/min)
• Accspecific,vehicle: transporter specific accumulation for a solvent control (pmol/mg/min)
Data are expressed as mean (n=3)
N-methyl quinidine (NMQ) measured in the vesicular transport inhibition assay.
Nominal ATP Relative ATP Relative
Compound concentration [µM] dependent transport dependent transport inhibition [%]
[pmol/mg/min] [% of control]
Data are expressed as mean (n=3) ± SD.

[3] = pH 5.0, 0.03 µM nominal + Cefadroxil 200 µM
[4] = pH 5.0, 0.03 µM nominal, no inhibitor
[5] = pH 5.0, 0.30 µM nominal + Cefadroxil 200 µM
[6] = pH 5.0, 0.30 µM nominal, no inhibitor
[7] = pH 6.0, 0.03 µM nominal + Cefadroxil 200 µM
[8] = pH 6.0, 0.03 µM nominal, no inhibitor
[9] = pH 6.0, 0.30 µM nominal + Cefadroxil 200 µM
[10] = pH 6.0, 0.30 µM nominal, no inhibitor

[3H]C(c1ccc2ccccc2c1)C([3H])(NC(=O)C1CCC(CNC(=O)CN2CCN(CC(=O)[O-])CCN(CC(=O)[O-])CCN(CC(=O)[O-])CC2)CC1)C(=O)NCCCCC(NC(=O)NC(CCC(=O)O)C(=O)O)C(=O)O.[Lu+3] (stereo not drawn) [([α,β-^3H]Nal)Lu-PSMA-617]
Uptake via transporter (PEPT2) ([1]; pH 5.0 and 6.0, absence and presence of cefadroxil): not taken up
Accumulation in PEPT2 transporter expressing cells [1, 3]: 0.16 ± 0.03 pmol/mg protein
Accumulation in control cells [1, 3]: 0.08 ± 0.00 pmol/mg protein
Accumulation, active transport [1, 3]: 0.08 ± 0.03 pmol/mg protein
Fold accumulation [1, 3]: 1.94
Accumulation in PEPT2 transporter expressing cells [1, 4]: 0.16 ± 0.03 pmol/mg protein
Accumulation in control cells [1, 4]: 0.12 ± 0.01 pmol/mg protein
Accumulation, active transport [1, 4]: 0.04 ± 0.03 pmol/mg protein
Fold accumulation [1, 4]: 1.34
Accumulation in PEPT2 transporter expressing cells [1, 5]: 1.58 ± 0.48 pmol/mg protein
Accumulation in control cells [1, 5]: 0.70 ± 0.12 pmol/mg protein
Accumulation, active transport [1, 5]: 0.88 ± 0.50 pmol/mg protein
Fold accumulation [1, 5]: 2.27
Accumulation in PEPT2 transporter expressing cells [1, 6]: 1.70 ± 0.50 pmol/mg protein
Accumulation in control cells [1, 6]: 0.87 ± 0.16 pmol/mg protein
Accumulation, active transport [1, 6]: 0.83 ± 0.53 pmol/mg protein
Fold accumulation [1, 6]: 1.95
Max. transporter-specific fold accumulation, without inhibitor ([1]; pH 5.0): 1.95
Max. transporter-specific fold accumulation, with inhibitor ([1]; pH 5.0): 2.27
Accumulation in PEPT2 transporter expressing cells [1, 7]: 0.17 ± 0.05 pmol/mg protein
Accumulation in control cells [1, 7]: 0.08 ± 0.01 pmol/mg protein
Accumulation, active transport [1, 7]: 0.09 ± 0.05 pmol/mg protein
Fold accumulation [1, 7]: 2.21
Accumulation in PEPT2 transporter expressing cells [1, 8]: 0.15 ± 0.05 pmol/mg protein
Accumulation in control cells [1, 8]: 0.10 ± 0.04 pmol/mg protein
Accumulation, active transport [1, 8]: 0.06 ± 0.06 pmol/mg protein
Fold accumulation [1, 8]: 1.57
Accumulation in PEPT2 transporter expressing cells [1, 9]: 1.57 ± 0.55 pmol/mg protein
Accumulation in control cells [1, 9]: 0.70 ± 0.16 pmol/mg protein
Accumulation, active transport [1, 9]: 0.88 ± 0.58 pmol/mg protein
Fold accumulation [1, 9]: 2.26
Accumulation in PEPT2 transporter expressing cells [1, 10]: 1.57 ± 0.45 pmol/mg protein
Accumulation in control cells [1, 10]: 0.87 ± 0.07 pmol/mg protein
Accumulation, active transport [1, 10]: 0.70 ± 0.45 pmol/mg protein
Fold accumulation [1, 10]: 1.81
Max. transporter-specific fold accumulation, without inhibitor ([1]; pH 6.0): 1.81
Max. transporter-specific fold accumulation, with inhibitor ([1]; pH 6.0): 2.26
Inhibitor assessment (MDR1) ([2]; 0.30 and 3.00 µM, inhibition >20% defined as significant): no inhibitor
Relative inhibition ([2]; test substance 0.30 µM nominal): 8%
ATP dependent transport ([2]; test substance 0.30 µM nominal): 4902.67 ± 183.91 pmol/mg/min
Relative ATP dependent transport ([2]; test substance 0.30 µM nominal): 91.93 ± 3.56 % of control
Relative inhibition ([2]; test substance 3.00 µM nominal): -5%
ATP dependent transport ([2]; test substance 3.00 µM nominal): 5625.67 ± 230.64 pmol/mg/min
Relative ATP dependent transport ([2]; test substance 3.00 µM nominal): 105.48 ± 4.44 % of control

Source: PMC11053447, “Human ABC and SLC Transporters: The Culprit Responsible for Unspecific PSMA-617 Uptake?” (Pharmaceuticals, 2024)
